The nature of data set [1]: Pharmacokinetic (PK) assay in mice. The following applies: CD-1 mice; for CL_obs: values marked **; for AUC(0-t) / Cmax / half-life / Vd / bioavailability: mouse, plasma; for Vd: read-out: Vss; for bioavailability: Po 5 mg/kg vs IV 1 mg/kg. The format is in vivo. Here is the method: The PK of each compound was determined as follows: 6 CD-1 mice (obtained from Shanghai Lingchang Biotechnology Co., Ltd.) were divided into two groups, 3 mice in each group. One group was administered intravenously at a dose of 1 mg/kg, and the vehicle was 5% DMSO/40% PEG400/55% (20% 3-CD); one group was administered by oral gavage at a dose of 5 mg/kg, and the vehicle was DMSO/1% methylcellulose (1:99). Blood samples were collected from saphenous vein of lower leg in each group at 0, 0.083, 0.25, 0.5, 1, 2, 4, 6, 8 and 24 h after administration. Approximately 40 μL of the blood samples were collected into anticoagulant tubes containing EDTA-K2. Immediately after collection, the tubes were inverted at least 5 times to ensure uniform mixing, and then placed on ice. The blood samples collected at each time point were centrifuged at 4° C., 8000 rpm for 5 minutes to obtain plasma. Another 1.5 mL centrifuge tube was marked with the compound name, animal number, and time point, and the plasma was transferred to this tube. The plasma was stored at −80° C. until analysis.
Compound concentrations in plasma were determined by UPLC-MS/MS method, and the pharmacokinetic parameters were calculated by Phoenix WinNolin 6.4 pharmacokinetic software on the obtained data.

The target of data set [2] is T1, GST-RORγ LBD (263-509) (Homo sapiens, UniProt P51449).
T1 construct: GST-RORγ LBD ((263-509) (produced at ChemPartner))
T1 sequence (P51449 263-509): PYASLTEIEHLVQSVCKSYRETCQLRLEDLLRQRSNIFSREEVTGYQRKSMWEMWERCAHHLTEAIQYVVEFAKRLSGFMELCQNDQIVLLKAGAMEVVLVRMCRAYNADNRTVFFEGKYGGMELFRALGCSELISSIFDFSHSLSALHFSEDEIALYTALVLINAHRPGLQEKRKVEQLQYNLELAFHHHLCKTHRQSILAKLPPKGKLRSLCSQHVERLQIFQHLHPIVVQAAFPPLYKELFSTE
Description: TR-FRET assay of agonistic activity on RORγ receptor. In kind it is biochemical. Here is the method: A time-resolved fluorescence resonance energy transfer (TR-FRET) assay was used for the compounds of the present disclosure, to determine the agonistic activity of the compounds on the RORγ protein receptor. The agonistic activity is expressed by the concentration for 50% of maximal effect (EC50). The experiment was performed basically with reference to the methods described in ONCOIMMUNOLOGY, 2016, VOL. 5, NO. 12, e1254854.
1. Preparation of RORγ Basal Buffer
A 100 mL basal buffer was prepared, mixed homogeneously and stored for use;
The compounds of the examples shown in the table below were prepared into solutions with DMSO as the solvent, serially diluted at 3-fold dilution to 10 concentrations starting from 10 mM, and added to the corresponding wells of a 384-well plate with each concentration of each compound in duplicate;
a. A 75 nM solution of GST-RORγ LBD ((263-509) (produced at ChemPartner)) and a 4 nM solution of Biotin-SRC1 (Glsbiochem) were prepared with the above basal buffer. The two solutions were 1:1 mixed evenly, and 10 μL of the mixed solution was added into each well of the above 384-well plate. The plate was immediately centrifugated at 1000 rpm for 10 seconds; b. A 1 nM solution of Anti-GST Eu (Cisbio, #61GSTKLA) and a 50 nM solution of SA-APC (Cisbio, […]) were prepared with the above basal buffer. The two solutions were 1:1 mixed evenly, and 10 μL of the mixed solution was added into each well of the above 384-well plate. The plate was immediately centrifugated at 1000 rpm for 10 seconds; c. The resulting 384-well plate was incubated at room temperature for 15 minutes. Data were read on an Envision microplate reader, EC50 values and E max % were calculated.
a. Readings were taken at 665 nm and 615 nm wavelengths respectively on the Envision Microplate Reader, and the ratios between them were normalized. b. Calculation was carried out with the following equation: […]
wherein X is the reading of compounds, Min is the reading of the blank solution, and Max is the reading of 10 μM SRC. c. The concentration-response curve data were fitted by a four-parameter logistic nonlinear regression model, and Emax was the TOP value of the fitted curve.
In general terms: In TR-FRET formats the signal depends on donor and acceptor labels being close together.

The target in data set [3] is T2, RORγt (RORγ-LBD chimeric receptor) (Homo sapiens, UniProt P51449).
T2 construct: host or cells: HEK293T
T2 sequence (P51449 269-508 limits assumed): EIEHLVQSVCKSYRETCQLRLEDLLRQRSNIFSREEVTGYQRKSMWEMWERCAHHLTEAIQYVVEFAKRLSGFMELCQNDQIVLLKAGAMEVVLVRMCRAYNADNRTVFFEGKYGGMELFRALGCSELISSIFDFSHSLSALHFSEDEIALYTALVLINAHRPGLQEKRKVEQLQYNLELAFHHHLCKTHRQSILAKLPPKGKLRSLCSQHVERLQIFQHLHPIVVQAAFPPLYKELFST
The data set is described as follows: Luciferase reporter gene assay of RORγt agonistic activity in HEK293T cells. In kind it is cell-based. Also on record: Emax: dose or concentration left out as unconfirmed. The note with it: for Emax: HEK-293T. An excerpt: This assay was basically carried out according to the method described in the literature ONCOIMMUNOLOGY, 2016, VOL. 5, NO. 12, e1254854.
The RORγ-LBD coding sequence was inserted into pBIND plasmid (Promega, E1581). This expression vector and a reporter vector (pGL4.35 carrying a stably integrated luciferase reporter gene driven by GAL4 promoter) were co-expressed in HEK293T host cells. When the agonist binds to the corresponding chimeric receptor, the chimeric receptor binds to the GAL4 binding site on the reporter gene carrier and stimulates reporter gene expression. The agonistic activity of the compound on RORγ was determined according to the intensity of the chemiluminescence signal.
1.1 All test compounds were serially diluted at 3-fold dilution with DMSO, with 10 serial dilutions starting from 10 mM; LIT-00093 solution was prepared similarly. […] 1.4 The compound plate was sealed and shaken for 5 min.
Cells were cultured according to ATCC standard operation, and 6*10^6 HEK293T cells were seeded into 100 mm cell culture dishes, cultured overnight in a 37° C., 5% CO2 incubator, and then transfected. Compounds of corresponding concentrations were added for treatment, and the Steady-Glo™ kit (Lot E 2520) was used for further detection.
Chemiluminescence values were detected with Envision 2104; EC50 values were calculated.
% Activity was calculated with the following equation: […]
RLU: […] R L Upositive: average value of positive control R L Uvehicle: average value of negative control
The log values of the compound concentration and % Activity were fitted using Graphad 8.0, to calculate EC50s of the compounds.
Background: Reporter assays use an easily measured gene product as a stand-in for the process of interest.

The nature of data set [4]: Metabolic stability in human liver microsomes. The following applies: for microsomal CLint: 0.5 mg protein/mL. The format is in vitro ADME. An excerpt:
(§1) According to standard methods of in vitro metabolic stability studies in the art, eg., the methods described in Kerns, Edward H. and Di Li (2008). Drug-like Properties: Concepts, Structure Design and Methods: from ADME to Toxicity Optimization. San Diego: Academic Press; Di, Li et al., Optimization of a Higher Throughput Microsomal Stability Screening Assay for Profiling Drug Discovery Candidates, J. Biomol. Screen. 2003, The method described in 8(4), 453, the liver microsomal metabolic stability test of the compounds of the present disclosure was carried out analogously as follows.
(§2) The incubation system contained 0.5 mg protein/mL microsomes, cofactors, and PBS, was pre-incubated at 37° C. for 3 min, and then added the substrate (i.e., the test compounds) to initiate the reaction. Samples were taken at 0, 1, 5, 10, 15, 20, 30 and 60 min from the start of the reaction, and an appropriate terminator was added to terminate the reaction.
(§3) The terminator was an ice acetonitrile solution containing 100 ng/mL tolbutamide and 100 ng/mL labetalol.
(§4) Sample treatment (n=3): each appropriate sample was added, vortexed and centrifuged at high speed. The supernatants were collected, and the substrate was detected by HPLC-MS/MS. The peak area at the 0 min was taken as 100%. The peak areas at other time points were converted to percentage of the remaining amount. The natural logarithms of the percentage of remaining amount at each time point was plotted against the incubation time, and the slope (−k) was calculated by linear regression. Then, Clint (uL/min/mg) and half-life (T½, min) of the compounds were calculated following the equation of the inherent clearance rate (Clint)=(k* volume of incubation solution)/mass of liver microsomes.
In general terms: Liver microsomes are vesicles of endoplasmic reticulum, rich in cytochrome P450 enzymes.

Data set [5] is described as follows: Metabolic stability in mouse liver microsomes. In kind it is in vitro ADME, CD-1 mice.
Source text: as §1, §2, §3, §4

We go through five compounds from patent US20220402867A1, “SULFO-SUBSTITUTED BIARYL COMPOUND OR SALT THEREOF, PREPARATION METHOD THEREFOR, AND USE THEREOF” (Shanghai Litedd Co., Ltd., priority 2019, published 2022).

As usually defined, the AUC(0-t) is the area under the concentration-time curve up to a stated or last time point. What is called Cmax is the peak of the concentration-time curve. The term half-life denotes the time needed for the level to fall by half in the phase considered. The bioavailability is the share of a dose that reaches the circulation, judged against a reference dose that is usually intravenous. The term pEC50 denotes the negative decadic logarithm of the EC50, by convention in mol/L. Broadly, the Emax is the size of the effect at its maximum, as opposed to the concentration needed. Usually microsomal CLint stands for a measure of how fast metabolising enzymes remove a compound, apart from limits set by blood flow.

pEC50: −log10 of the molar value. Read-outs that look alike come from different tables or passages of the source.

Consider `COC[C@H](C(=O)Nc1cc(Cl)c(-c2ccc(S(=O)(=O)C3CC3)cc2)c(Cl)c1)c1ccc(S(C)(=O)=O)cc1` (single isomer, unassigned) [Example 35, (S)—N-(2,6-dichloro-4′-(cyclopropylsulfonyl)-[1,1′-biphenyl]-4-yl)-3-methoxy-2-(4-(methylsulfonyl)phenyl)propanamide or (R)—N-(2,6-dichloro-4′-(cyclopropylsulfonyl)-[1,1′-biphenyl]-4-yl)-3-methoxy-2-(4-(methylsulfonyl)phenyl)propanamide], for which, in data set [1] (IV 1 mg/kg), the CL_obs is recorded as 2.40** mL/min/kg, the exposure AUC(0-t) came out at 6880 ng·h/mL, the highest level (Cmax) was 1340 ng/mL and the half-life was 3.56 h. For the same compound, in data set [1] (IV 1 mg/kg, values marked *), the Vd worked out at 0.83 L/kg. The compound further registered a bioavailability in data set [1] of 32.8%. In data set [1] (Po 5 mg/kg), the AUC(0-t) is 9140 ng·h/mL, the Cmax is 700 ng/mL and the half-life is 12.3 h.

In data set [2] (TR-FRET, GST-RORγ LBD with Biotin-SRC1), `CS(=O)(=O)c1ccc(C(CO)C(=O)Nc2cc(Cl)c(-c3ccc(S(=O)(=O)C4CC4)cc3)c(Cl)c2)cc1` (single isomer, unassigned) [Example 37, (S)—N-(2,6-Dichloro-4′-(cyclopropylsulfonyl)-[1,1′-biphenyl]-4-yl)-2-(4-(methylsulfonyl)phenyl)-3-hydroxypropionamide or (R)—N-(2,6-dichloro-4′-(cyclopropylsulfonyl)-[1,1′-biphenyl]-4-yl)-2-(4-(methylsulfonyl)phenyl)-3-hydroxypropionamide] had a pEC50 of 7.56. Besides, the Emax % in data set [2] (maximum activation rate, TOP of fitted curve) amounted to 197.0%. Besides, in data set [1] (IV 1 mg/kg), the CL_obs is 7.21** mL/min/kg, the AUC(0-t) worked out at 2170 ng·h/mL, the Cmax was 1320 ng/mL and the half-life was 2.2 h. Further, the Vd in data set [1] (IV 1 mg/kg, values marked *) turned out to be 1.27 L/kg. In data set [1], this compound registered a bioavailability of 15.8%. In data set [1] (Po 5 mg/kg), this compound showed an AUC(0-t) of 1440 ng·h/mL, a peak concentration (Cmax) of 294 ng/mL and a half-life of 2.6 h.

In data set [3], `CS(=O)(=O)c1ccc(-c2c(Cl)cc(NC(=O)Cc3ccc(S(=O)(=O)CCO)cc3)cc2Cl)cc1` [Example 14, N-(2,6-Dichloro-4′-(methylsulfonyl)-[1,1′-biphenyl]-4-yl)-2-(4-(2-hydroxyethylsulfonyl)phenyl)acetamide] gave a pEC50 of 6.65 and an Emax of 40.7%. Further, in data set [4], the half-life worked out at 1.55 h, the intrinsic metabolic clearance (microsomal CLint) was found to be 14.9 µL/min/mg and the “% Remaining (T = 60 min)” value was 61.7%. The “% Remaining (T = 60 min)” value in data set [5] (60 min) is 87.3%. In addition, the half-life in data set [5] (CD-1) was over 2.42 h. In addition, the intrinsic clearance (microsomal CLint) in data set [5] (CD-1, 0.5 mg protein/mL) was under 9.6 µL/min/mg.

With `CC(C)Cc1ccc(-c2c(Cl)cc(NC(=O)Cc3ccc(S(C)(=O)=O)cc3)cc2Cl)cc1C#N` [LIT-00093, reference compound], the pEC50 in data set [3] (HEK293T, GAL4 luciferase reporter, read-out: EC50) was 6.94. The compound further registered an Emax in data set [3] of 83.9%. Also, in data set [4], the half-life amounted to 0.0783 h, the microsomal CLint was 295 µL/min/mg and the “% Remaining (T = 60 min)” value amounted to 0%.

On to `CC(C)(C[C@H]1CN(S(=O)(=O)c2cccc(C(F)(F)F)c2)c2cc(-c3cc(F)cc(OC(F)F)c3)ccc2O1)C(=O)O` [LYC-55716, reference compound], for which, in data set [1] (IV 1 mg/kg), the AUC(0-t) came to 256 ng·h/mL, the Cmax amounted to 353 ng/mL, the half-life was 2.63 h and the Vd worked out at 7.23 L/kg. In data set [1], this compound came in with a bioavailability of 21%. In data set [1] (Po 5 mg/kg), this compound showed an area under the curve AUC(0-t) of 269 ng·h/mL, a peak concentration (Cmax) of 52.6 ng/mL and a half-life of 5.35 h.
